# Patent US20050137209A1, “Treatment of neurologic disorders with inhibitors of 11beta-HSD1” (AGY Therapeutics, Inc., priority 2003, published 2005)
# Legend:
# [1] = target: T1, human 11βHSD2 (Homo sapiens, UniProt P80365); conditions: cited from earlier work
# T1 sequence (P80365 1-405): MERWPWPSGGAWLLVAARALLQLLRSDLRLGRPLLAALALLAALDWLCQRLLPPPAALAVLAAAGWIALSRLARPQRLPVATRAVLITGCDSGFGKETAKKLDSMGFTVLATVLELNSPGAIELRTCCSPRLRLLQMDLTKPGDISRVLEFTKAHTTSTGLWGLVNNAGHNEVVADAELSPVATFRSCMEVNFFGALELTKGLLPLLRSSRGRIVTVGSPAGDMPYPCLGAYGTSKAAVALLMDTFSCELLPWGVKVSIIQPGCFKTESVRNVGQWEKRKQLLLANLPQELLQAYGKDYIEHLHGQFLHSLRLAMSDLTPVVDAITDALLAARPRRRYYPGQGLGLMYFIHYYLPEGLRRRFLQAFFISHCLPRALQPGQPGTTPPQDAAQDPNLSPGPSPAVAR
# [2] = test system: middle cerebral artery occlusion (MCAO) brain infarction; experiment: MCAO transient focal ischemia, BVT 2733 (Example 1); assay type: in vivo; conditions: rat, 90 min MCAO, bolus 90 mg/kg at 4.5 h and 8.5 h post-occlusion, 24 h reperfusion
# Method: BVT 2733 was tested in the following MCAO protocol. A middle cerebral artery (MCA) occlusion was used to induce temporary cerebral ischemia. It involves anesthetizing the rat, making an incision in the ventral neck region to isolate the common carotid artery and the internal and external carotid arteries. […] A silicone-coated mono filament is then inserted into the external carotid artery and woven through the artery into the internal carotid until it can occlude blood flow to the middle cerebral artery (MCA). The filament is removed after 90 min. After removal of the filament, the external carotid stump is tied shut and the clamps removed to allow the return of blood flow to the brain. The incision will be closed with wound clips. Post surgery, animals are observed until recovery from anesthesia.
# During the surgery, animals are kept on a thermostat-regulated heating pad to maintain the body and head temperatures at 37° C. […]
# The body core temperature of the animal is measured regularly, up to 1 day of recovery in some animals. […] Temperatures are measured manually using a rectal probe. […]
# After 24 hours of reperfusion, the animals are sacrificed. […] Infarction volume was measured by digital imaging and image analysis software. Infarction volumes are determined in cortex and striatum and expressed as a percentage of the total brain volume. […]
# [3] = test system: middle cerebral artery occlusion (MCAO) brain infarction; experiment: MCAO transient focal ischemia, carbenoxolone (Example 2); assay type: in vivo, rat
# Source text: The method used is a middle cerebral artery (MCA) occlusion to induce temporary cerebral ischemia. It involves anesthetizing the rat, making an incision in the ventral neck region to isolate the common carotid artery and the internal and external carotid arteries. […] A silicone-coated mono filament is then inserted into the external carotid artery and woven through the artery into the internal carotid until it can occlude blood flow to the middle cerebral artery (MCA). The filament can then be tied in place (permanent occlusion) or removed after a short amount of time depending on the desired degree of ischemic damage (3 minutes to 2 hours). After removal of the filament, the external carotid stump is tied shut and the clamps removed to allow the return of blood flow to the brain. The incision was closed with wound clips. Post surgery, animals were observed until recovery from anesthesia. During the surgery, animals were kept on a thermostat-regulated heating pad to maintain the body and head temperatures at 37° C. To inhibit the blood from clotting 90 IU.kg^−1 Heparin was administered intravenously to the animal after occlusion of MCAO. The body core temperature of the animal was measured regularly, up to 1 day of recovery in some animals. […] Temperatures are measured manually using a rat probe. […] Infarction volume was measured by digital imaging and image analysis software. […]
compound,measurement,setting,value
"Cc1c(Cl)cccc1S(=O)(=O)Nc1nc(CC(=O)N2CCN(C)CC2)cs1 [BVT 2733, 3-Chloro-2-methyl-N-{4-[2-(4-methyl-piperazin-1-yl)-2-oxo-ethyl]-thiazol-2-yl}-benzenesulfonamide]",IC50,[1],> 10 µM
same,neuroprotection (FIG. 1),[2],potent and significant neuroprotection
same,"infarction volume in cortex and striatum as percentage of total brain volume, versus vehicle",[2]; TTC staining,smaller infarction compared to vehicle treated rats
CC1(C)[C@@H](OC(=O)CCC(=O)O)CC[C@]2(C)[C@H]3C(=O)C=C4[C@@H]5C[C@@](C)(C(=O)O)CC[C@]5(C)CC[C@@]4(C)[C@]3(C)CC[C@@H]12 [carbenoxolone],neuroprotection,"[3]; rat MCAO, carbenoxolone administered at 4 to 6 hours post-occlusion",potent neuroprotection
same,"infarction volume in cortex and striatum as percentage of total brain volume, versus vehicle","[3]; rat, 90 min MCAO, bolus 20 mg at 5 min of reperfusion plus infusion 1.6 mg/h for 24 hours, TTC staining",smaller infarction compared to vehicle treated rats
